In patent US5414000A, “Antiviral pyrinyl substituted tetrahydropyrans” (Bristol-Myers Squibb Co., priority 1994, dated 1995):
pIC50: −log10 of the molar value.

Assays:
Type in all cases: cell-based
[1] = tested on: HSV-1 (herpes simplex virus type 1, strain Schooler); assay: HSV-1 antiviral plaque reduction assay in WI-38 cell culture; details: Human alphaherpesvirus 1, 96 h; HSV-1 strain Schooler; WI-38 monolayers; at least 50% plaque reduction vs virus controls; 4 days at 37° C.; read-out: ID50 HSV-1
Method: (§1) Assays were performed in cell culture systems to determine the concentrations of compounds that are effective in preventing several kinds of viral infections. Abbreviations:
(§2) HSV-1 (herpes simplex virus type 1, strain Schooler), HSV-2 (herpes simplex virus type 2, strain 186), VZV (varicella zoster virus, strain ELLEN), HCMC (human cytomegalovirus, strain AD 169). Cell Culture Assays:
(§3) HSV-1, HSV-2, HCMV and VZV antiviral assays: Virus was adsorbed to WI-38 cell culture monolayers in 5 well culture plates (Costar, Cambridge, Mass.) for 1 hour prior to addition of maintenance medium containing duplicate dilutions of the test compound. Inhibition of plaque development was evaluated on fixed and stained monolayers after 4 days incubation at 37° C. for HSV-1 and HSV-2, and after 5-7 days incubation at 37° C. for HCMV and VZV. ID50 values were determined from the drug concentration which conferred at least a 50% plaque reduction compared to virus controls.

[2] = tested on: HCMV (human cytomegalovirus, strain AD 169); assay: HCMV antiviral plaque reduction assay in WI-38 cell culture; details: Human betaherpesvirus 5; HCMV strain AD 169; WI-38 monolayers; at least 50% plaque reduction vs virus controls; 5-7 days at 37° C.; read-out: ID50 HCMV
Method: as §1, §2, §3

[3] = tested on: VZV (varicella zoster virus, strain ELLEN); assay: VZV antiviral plaque reduction assay in WI-38 cell culture; details: Human alphaherpesvirus 3, WI-38 monolayers, at least 50% plaque reduction vs virus controls, 5-7 days at 37° C., read-out: ID50 VZV
Method: as §1, §2, §3

[4] = tested on: HSV-2 (herpes simplex virus type 2, strain 186); assay: HSV-2 antiviral plaque reduction assay in WI-38 cell culture; details: Human alphaherpesvirus 2, 96 h; HSV-2 strain 186; WI-38 monolayers; at least 50% plaque reduction vs virus controls; 4 days at 37° C.; read-out: ID50 HSV-2
Method: as §1, §2, §3

SMILES | pIC50 [1] | pIC50 [2] | pIC50 [3] | pIC50 [4]
Nc1nc2c(ncn2[C@@H]2CO[C@H](CO)[C@@H](O)C2)c(=O)[nH]1 [Example 1, [3S-(3α, 5β, 6α)]-2-Amino-1,9-dihydro-9-[tetrahydro-5-hydroxy-6-(hydroxymethyl)-2H-pyran-3-yl]-6H-purin-6-one] | 4.74 | 4.44 to 4.74 | 4.44 to 4.74 | 4.74
Nc1ncnc2c1ncn2[C@@H]1CO[C@H](CO)[C@@H](O)C1 [Example 2, [2R-(2α, 3β, 5α)]-5-(6-Amino-9H-purin-9yl)tetrahydro-3-hydroxy-2H-pyran-2-methanol] | 4.72 to 5.10 | 4.42 to 5.40 | 4.42 | 4.72 to 5.10
Nc1ccn([C@@H]2CO[C@H](CO)[C@@H](O)C2)c(=O)n1 [Example 3, [3S-(3α, 5β, 6α)]-4-Amino-1-[tetrahydro-5-hydroxy-6-(hydroxymethyl) -2H-pyran-3-yl]-2-(1H) -pyrimidinone] | 6.10 to 6.40 | 5.70 | 5.10 to 5.40 | 6.10 to 6.40
O=c1[nH]c(=O)n([C@@H]2CO[C@H](CO)[C@@H](O)C2)cc1I [Example 4, [3S-(3α, 5β, 6α)]-5-Iodo-1-[tetrahydro-5-hydroxy-6-(hydroxymethyl) -2H-pyran-3-yl]-2,4 (1H, 3H) -pyrimidinedione] | 5.85 to 6.52 | < 3.57 | 3.57 to 4.17 | 5.27 to 5.52
Cc1cn([C@@H]2CO[C@H](CO)[C@@H](O)C2)c(=O)[nH]c1=O [Example 5, [3S-(3α, 5β, 6α)]-5-Methyl-1-[tetrahydro-5-hydroxy-6-(hydroxymethyl)-2H-pyran-3-yl]-2,4 (1H, 3H)-pyrimidinedione] | 3.41 | ≤ 3.41 | 3.41 to 4.41 | < 3.41
O=c1[nH]c(=O)n([C@@H]2CO[C@H](CO)[C@@H](O)C2)cc1/C=C/Br [Example 6] | 4.14 to 4.54 | < 3.54 | 4.84 to 5.24 | < 3.54
